How the values were obtained:
NonL = assay: In vitro assay of NonL as a CoA ligase (conversion of acids to CoA esters, HPLC); assay type: biochemical, Streptomyces griseus
Description: Expression of nonL and characterization of NonL as a CoA ligase. The nonL gene was amplified from pBS2013 by PCR with forward primer of 5′-[…]-3′ (SEQ ID NO:12) (the NdeI site is underlined) and reverse primer of 3′-[…]-5′ (SEQ ID NO:13)(the EcoRI site is underlined) and cloned as a 1.7-kb NdeI-EcoRI fragment into the same sites of pET28a (Novagen, Madison, Wis.) to yield pBS2023. The expression of nonL in E. coli BL-21 (DE-3) (pBS2023) and purification of the resulting NonL protein by affinity chromatography on Ni-NTA resin were carried out under the standard conditions recommended by Novagen (FIG. 10). The incubation temperature was lowered to 15° C. to improve the solubility.
For in vitro assay of NonL as a CoA ligase, the complete assay solution (50 μl) consisted of 2 mM ATP, 2 mM CoA, 2 mM (±)-3, 10 mM KCl, 2 mM DTT, 5 mM MgCl2, 50 to 800 nM NonL in 10 mM Tris-HCl, pH 8.0. The reaction mixture was incubated at 30° C. for 2 hr and analyzed by HPLC on an Alltima C18 column (4.6×250 mm, 5μ, 100 Å, Alltech, Deerfield, Ill.). The column was first eluted in 20 mM NH4Ac, pH 5.8, for 5 min, followed by linear gradient from 0% to 50% CH3CN in 20 mM NH4Ac, pH 5.8 for 10 min, and maintained at 50% CH3CN in 20 mM NH4Ac for an additional 10 min, with flow rate of 0.8 ml/min and detection at 260 nm.
On the basis of its high sequence homology to a family of CoA ligases, the inventors reasoned that NonL, rather than directly contributing to the C—O bond-forming steps, instead activates (±)-3 into CoA esters (±)-2 that are then tetramerized into 1 by the NonJK KSs. To validate this hypothesis, the inventors expressed nonL in E. coli, purified NonL as a His6-tagged fusion protein (FIG. 10), and characterized NonL as a CoA ligase. The inventors monitored the in vitro assay of NonL by HPLC analysis: NonL catalyzes the conversion of (±)-3 to (±)-2, requiring CoA and ATP as co-substrates. Under the condition examined, 80% of (±)-3 was converted to (±)-2 in 2 hrs, confirming that NonL recognizes both (+)- and (−)-3 as substrates (FIG. 7). The identity of (±)-2 was verified by ESI-MS, yielding a characteristic (M−2H)^2− ion at m/z=474.7, consistent with the molecular formula of C31H52N7O19P3S.
In this particular experiment, the inventors expanded the category of synthetic 8 derivatives to determine the degree of flexibilities of each process in macrotetrolide biosynthesis. With minor modifications in the previously described method, (±)-8-n-propyl-nonactate (8), (±)-epi-8-n-propyl-nonactate (A), (±)-2-n-propyl-nonactate (B), and (±)-epi-2-n-propyl-nonactate (C) were prepared. These four compounds were tested for the CoA-activated by using purified NonL. […] The chromosomal DNA fragment encompassing nonJ and nonL from S. griseus DSM40695 was subcloned into pIJ4123 under the control of thiostrepton inducible promoter (tipAp) to generate pBS2045 that was introduced into S. lividans TK-24. For pIJ4123, see the reference; Takano, E.; White, J.; Thompson, C. J.; Bibb, M. J. Gene 1995, 160, 133.

NonJ = assay: Dimer formation with cell-free extract of S. lividans (pBS2045) harboring nonL and nonJ; assay type: biochemical, Streptomyces griseus; details: CFE of S. lividans (pBS2045)
Description: Cell-free extract (CFE) preparation: S. lividans (pBS2045) were grown on Yeast Extract-Malt Extract (YEME, 34% sucrose) media supplemented with kanamycin (50 μg/ml), at 30° C. and 300 rpm for 1 d and added with thiostrepton (5 μg/ml). The thiostrepton-treated culture was maintained in the same condition for 1 d and then harvested by centrifugation (13,600 g, 20 min, 4° C.). Cell were lysed in 30 ml of 100 mM sodium phosphate buffer (pH, 8.0)-1 mM EDTA-50 mM KCl-10% glycerol with lysozyme (2 mg/ml) for 30 min at 4° C., sonicated for thirty 10-sec bursts at 300 W with a 30-sec cooling period between each burst. […]
Conditions for CFE-assay and chemical analysis: The assay solution consisted of 1 to 2 mM each of (±)-6, CoA, and ATP and 0.8 mg/ml of protein in 10 mM Tris-Cl (pH, 8.0)-10 mM KCl-2 mM DTT-5 mM MgCl2, and incubated at 30° C. for 1 h to 3 hs. […] The organic layer was analyzed for 1 by Thin-Layer Chromatography (TLC), Evaporative Light-Scattering Detector (ELSD)-High Performance Liquid Chromatography (HPLC), and positive Matrix-Assisted Laser Desorption Ionization (MALDI)-Mass Spectrometry (MS) analysis as previously described.^5d The aqueous layer was analyzed by HPLC with UV-detection, from which relevant peaks were collected and subjected to negative MALDI-MS analysis. […]

Chain of NonJ (as listed by the source): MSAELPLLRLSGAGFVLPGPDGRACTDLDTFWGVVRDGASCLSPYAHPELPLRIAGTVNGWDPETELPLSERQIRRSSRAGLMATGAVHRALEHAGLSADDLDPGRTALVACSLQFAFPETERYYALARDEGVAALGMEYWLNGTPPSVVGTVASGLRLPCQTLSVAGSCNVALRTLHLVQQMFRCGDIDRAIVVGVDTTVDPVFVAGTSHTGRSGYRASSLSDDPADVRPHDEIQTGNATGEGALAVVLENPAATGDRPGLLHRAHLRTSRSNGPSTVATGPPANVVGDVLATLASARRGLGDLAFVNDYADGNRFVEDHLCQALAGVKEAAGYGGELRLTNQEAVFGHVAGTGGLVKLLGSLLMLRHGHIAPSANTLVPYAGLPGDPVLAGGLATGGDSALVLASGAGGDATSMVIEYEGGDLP

Compound	conversion of (±)-3 to (±)-2 by NonL (NonL; in 2 hrs, 30° C., 2 mM ATP, 2 mM CoA, 2 mM (±)-3) [%]	conversion into CoA derivative by purified NonL (NonL)	dimer (dimeric CoA ester) formation by NonJ (NonJ)
CC(O)CC1CCC(C(C)C(=O)O)O1 (racemic) [(±)-3, nonactic acid]	80		
(±)-2-n-propyl-nonactate [B]		no conversion was evident	
(±)-8-n-propyl nonactate [compound 8]		efficiently converted	converted the dimeric 8-CoA
(±)-epi-2-n-propyl-nonactate		no conversion was evident	
(±)-epi-8-n-propyl-nonactate		efficiently converted	no dimeric A-CoA was found
